# Results: paper PMC9977294, “A parasitic fungus employs mutated eIF4A to survive on rocaglate-synthesizing Aglaia plants” (eLife, 2023)
# “Also recorded” adds a separate entry of the source.
# Tests used:
# [1] = test system: C. orbiculare eIF4A^His153Gly conidia and mycelia; test: Ribosome profiling and RNA-Seq, translation efficiency change; format: cell-based, Colletotrichum orbiculare; conditions: 3 µM aglafoline, 6 h, compared with eIF4A^WT
# Procedure: (§1) Glycerol stocks of C. orbiculare eIF4A^WT#1 and eIF4A^H153G#1 strains were streaked on PDA in 90 mm plastic Petri dishes and incubated for 3 days. A single colony of each strain was transferred onto PDA and incubated for 3 days. The outer edges of colonies were transferred to 90 mm plastic dishes filled with 20 ml of PDB using plastic straws and incubated for 4 days. Aglafoline (0.3 or 3 µM) or DMSO was added to dishes and incubated for 6 h.
# (§2) A single colony from the glycerol stocks was cultured by the same method used for mycelium preparation. The outer edges of colonies of each strain were transferred into six 300 ml flasks filled with 100 ml of PDA. Two milliliters of sterilized water was added to each flask, and the flasks were shaken well to ensure that the mycelial cells adhered to the entire surface of the PDA evenly. After 6 days of incubation in the dark, conidia generated on the surface of PDA were suspended in 20 ml of sterilized water. […]
# (§3) Sequence data were processed as previously described ([McGlincy and Ingolia, 2017]) with modifications. For ribosome profiling, using the Fastp v0.21.0 ([Chen et al., 2018]) tool, sequences of reads 1 were corrected by reads 2, and quality filtering and adapter sequence removal were performed on reads 1. The adapter-removed reads 1 were split by the barcode sequence. […]
# [2] = test system: C. orbiculare eIF4A^WT conidia and mycelia; test: as above; format: cell-based, Colletotrichum orbiculare; conditions: 0.3 or 3 µM aglafoline, 6 h
# Procedure: as §1, §2, §3
compound,measurement,setting,value
"COC(=O)[C@H]1[C@@H](O)[C@@]2(O)c3c(OC)cc(OC)cc3O[C@@]2(c2ccc(OC)cc2)[C@@H]1c1ccccc1 [Aglafoline, methyl rocaglate]",translation efficiency change,[1],attenuated by the His153Gly substitution
same,translation efficiency change,[2],a subset of mRNAs showed high aglafoline sensitivity in terms of translation efficiency in conidia; also recorded: the reduction was compound dose dependent
